Biological target: Thrombin (≥1000 NIH U mg^−1 protein) prepared from human plasma (Homo sapiens, UniProt P00734)
Test: chromogenic thrombin activation assay, […] nm
Type: biochemical

EC50 [µM] | Compound
136 | CC(=O)Oc1ccc(/C=C/C(=O)Nc2nc3ccccc3s2)cc1 [Q2, (E)-4-(3-(Benzo[d]thiazol-2-ylamino)-3-oxoprop-1-en-1-yl)phenyl acetate]
232 | COc1cc(/C=C/C(=O)Nc2nc3ccccc3s2)cc(OC)c1OC [Q8, (E)-N-(Benzo[d]thiazol-2-yl)-3-(3,4,5-trimethoxyphenyl)acrylamide]
127 | O=S(=O)(O)c1cc(O)ccc1O [etamsylate, reference compound]
